Source: ChEMBL document CHEMBL1146527, “The guineamides, novel cyclic depsipeptides from a Papua New Guinea collection of the marine cyanobacterium Lyngbya majuscula” (J Nat Prod, 2003)
The source made the active and inactive calls. The calls are words filed in the database; no cut-off is given here.

Assays:
[1] = test system: N2a; test: Cytotoxicity against mouse Neuro2a cells at 10 ug/mL; assay type: functional, cell-based
[2] = Cytotoxicity against mouse Neuro2a cells; assay type: functional, cell-based; details: N2a

SMILES | Activity [1] | IC50 [2] [µM]
CC[C@H]1NC(=O)c2csc(n2)[C@H](C)NC(=O)[C@H](Cc2ccccc2)N(C)C(=O)[C@H](C(C)C)N(C)C(=O)[C@H](C)OC(=O)[C@H]1C | inactive | 
CC1NC(=O)c2csc(n2)[C@H](C)NC(=O)[C@H](Cc2ccccc2)N(C)C(=O)[C@H](C(C)C)N(C)C(=O)[C@H](C(C)C)OC(=O)C1C (stereo partly drawn) [GUINEAMIDE B] |  | 15
C#CCCCC1NC(=O)[C@H](C)N(C)C(=O)[C@H](C(C)C)NC(=O)[C@H](Cc2ccc(OC)cc2)N(C)C(=O)C(C(C)CC)OC(=O)C1C (stereo partly drawn) [GUINEAMIDE C] |  | 16
